Data from ChEMBL document CHEMBL1201862, “PubChem BioAssay data set” (2004).
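48-hour exposure; five concentrations; linearly interpolated endpoints. GI50 marks 50% less growth.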 The source made the active and inactive calls. No stated cut-off is given here; in the data, active = GI50 up to about 1.1 µM and inactive = higher.

How the values were obtained:
Assay in all cases: DTP human tumour cell line panel, 48 h
786-0 = test system: 786-0
A498 = test system: A498
A549 = test system: A549
ACHN = test system: ACHN
BT-549 = test system: BT-549
CAKI-1 = test system: CAKI-1
COLO 205 = test system: COLO 205
DU-145 = test system: DU-145
EKVX = test system: EKVX
HCT-116 = test system: HCT-116
HCT-15 = test system: HCT-15
HL-60 = test system: HL-60
HOP-62 = test system: HOP-62
HOP-92 = test system: HOP-92
HT-29 = test system: HT-29
Hs-578T = test system: Hs-578T
IGROV-1 = test system: IGROV-1
K562 = test system: K562
KM12 = test system: KM12
LOX IMVI = test system: LOX IMVI
M14 = test system: M14
MCF7 = test system: MCF7
MDA-MB-231 = test system: MDA-MB-231
MDA-MB-435 = test system: MDA-MB-435
MDA-N = test system: MDA-N
MOLT-4 = test system: MOLT-4
Malme-3M = test system: Malme-3M
NCI-H226 = test system: NCI-H226
NCI-H460 = test system: NCI-H460
NCI-H522 = test system: NCI-H522
NCI/ADR-RES = test system: NCI/ADR-RES
OVCAR-3 = test system: OVCAR-3
OVCAR-4 = test system: OVCAR-4
OVCAR-5 = test system: OVCAR-5
OVCAR-8 = test system: OVCAR-8
PC-3 = test system: PC-3
RPMI-8226 = test system: RPMI-8226
RXF 393 = test system: RXF 393
SF-268 = test system: SF-268
SF-295 = test system: SF-295
SF-539 = test system: SF-539
SK-MEL-28 = test system: SK-MEL-28
SK-MEL-2 = test system: SK-MEL-2
SK-MEL-5 = test system: SK-MEL-5
SK-OV-3 = test system: SK-OV-3
SN12C = test system: SN12C
SNB-19 = test system: SNB-19
SNB-75 = test system: SNB-75
SR = test system: SR
SW-620 = test system: SW-620
T47D = test system: T47D
TK-10 = test system: TK-10
U-251 = test system: U-251
UACC-257 = test system: UACC-257
UACC-62 = test system: UACC-62
UO-31 = test system: UO-31
CCRF-CEM = test system: CCRF-CEM
NCI-H23 = test system: NCI-H23

Measured: GI50

OC(c1nc2ccccc2[nH]1)C(O)C(O)C(O)c1nc2ccccc2[nH]1 (centres undefined)
> 100 µM: HCT-15
inactive: 786-0 > 100 µM | A498 > 100 µM | A549 > 100 µM | ACHN > 100 µM | BT-549 > 100 µM | CAKI-1 > 100 µM | COLO 205 > 100 µM | DU-145 > 100 µM | EKVX > 100 µM | HCT-116 > 100 µM | HL-60 > 100 µM | HOP-62 > 100 µM | HOP-92 > 100 µM | HT-29 > 100 µM | Hs-578T 91.4 µM | IGROV-1 > 100 µM | K562 > 100 µM | KM12 > 100 µM | LOX IMVI > 100 µM | M14 > 100 µM | MCF7 > 100 µM | MDA-MB-231 > 100 µM | MDA-MB-435 > 100 µM | MDA-N > 100 µM | MOLT-4 > 100 µM | Malme-3M > 100 µM | NCI-H226 > 100 µM | NCI-H460 > 100 µM | NCI-H522 > 100 µM | NCI/ADR-RES > 100 µM | OVCAR-3 > 100 µM | OVCAR-4 > 100 µM | OVCAR-5 > 100 µM | OVCAR-8 > 100 µM | PC-3 > 100 µM | RPMI-8226 > 100 µM | RXF 393 > 100 µM | SF-268 > 100 µM | SF-295 > 100 µM | SF-539 > 100 µM | SK-MEL-28 > 100 µM | SK-MEL-2 > 100 µM | SK-MEL-5 > 100 µM | SK-OV-3 > 100 µM | SN12C > 100 µM | SNB-19 > 100 µM | SNB-75 > 100 µM | SR > 100 µM | SW-620 > 100 µM | T47D > 100 µM | TK-10 > 100 µM | U-251 > 100 µM | UACC-257 > 100 µM | UACC-62 > 100 µM | UO-31 > 100 µM

Cc1ncc(C/N=C/c2ccc(Cl)cc2)c(N)n1
> 100 µM: HCT-15
inactive: 786-0 > 100 µM | A498 > 100 µM | A549 > 100 µM | ACHN > 100 µM | BT-549 > 100 µM | CAKI-1 > 100 µM | CCRF-CEM > 100 µM | COLO 205 > 100 µM | DU-145 > 100 µM | EKVX > 100 µM | HCT-116 > 100 µM | HL-60 > 100 µM | HOP-62 > 100 µM | HOP-92 > 100 µM | HT-29 > 100 µM | Hs-578T > 100 µM | IGROV-1 > 100 µM | K562 > 100 µM | KM12 > 100 µM | LOX IMVI > 100 µM | M14 > 100 µM | MCF7 > 100 µM | MDA-MB-231 > 100 µM | MDA-MB-435 > 100 µM | MDA-N > 100 µM | MOLT-4 > 100 µM | Malme-3M > 100 µM | NCI-H226 > 100 µM | NCI-H23 > 100 µM | NCI-H460 > 100 µM | NCI-H522 > 100 µM | NCI/ADR-RES > 100 µM | OVCAR-3 > 100 µM | OVCAR-4 > 100 µM | OVCAR-5 > 100 µM | OVCAR-8 > 100 µM | PC-3 > 100 µM | RPMI-8226 > 100 µM | RXF 393 > 100 µM | SF-268 > 100 µM | SF-295 > 100 µM | SF-539 > 100 µM | SK-MEL-28 > 100 µM | SK-MEL-2 > 100 µM | SK-MEL-5 > 100 µM | SK-OV-3 > 100 µM | SN12C > 100 µM | SNB-19 > 100 µM | SNB-75 > 100 µM | SR > 100 µM | SW-620 > 100 µM | T47D > 100 µM | TK-10 > 100 µM | U-251 > 100 µM | UACC-257 > 100 µM | UACC-62 > 100 µM | UO-31 > 100 µM
